This is an account of results in PubChem BioAssay (NCI).

Some test systems named below: SF-295 CNS; PC-3 prostate; OVCAR-3 ovarian; SNB-19 CNS; CCRF-CEM leukemia; MDA-MB-231 breast; TK-10 renal; BT-549 breast; HT29 colon; SK-MEL-28 melanoma.
What all share (assay): growth of human tumour cells (NCI), 48 h

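96-well plates; 48 h exposure; 5 concentrations. Endpoints by linear interpolation between flanking doses. Not reached: highest tested concentration assigned. The concentration for full growth arrest is given as TGI.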 Where only a bound is given, the exact number is not on record here.

As for `O=c1[nH]c2ccccc2nc1/C=C(\O)C(F)F`, the TGI in the experiment on SF-295 CNS, with PC-3 prostate, in the experiment with OVCAR-3 ovarian, with SNB-19 CNS, with CCRF-CEM leukemia and with MDA-MB-231 breast was greater than 100 µM throughout. The TGI in the experiment with TK-10 renal, with BT-549 breast, in the experiment with HT29 colon and in the experiment on SK-MEL-28 melanoma was greater than 100 µM each time.

Consider `COc1cc(/C=C2\N=C(c3ccccc3)N(/N=C3\C(=O)Nc4ccccc43)C2=O)cc(OC)c1OC`, for which the TGI with SF-295 CNS, with PC-3 prostate, in the experiment on OVCAR-3 ovarian, in the experiment on SNB-19 CNS, with CCRF-CEM leukemia and in the experiment on MDA-MB-231 breast was greater than 100 µM each time. In addition, the TGI in the experiment with TK-10 renal, with BT-549 breast, in the experiment on HT29 colon and in the experiment on SK-MEL-28 melanoma was greater than 100 µM throughout.

As to `CC(C)(C)n1c(=O)n(C(=O)C(Cl)(Cl)Cl)n(C(=O)C(Cl)(Cl)Cl)c1=O`, the TGI in the experiment on SF-295 CNS, in the experiment with PC-3 prostate, with OVCAR-3 ovarian, in the experiment with SNB-19 CNS, in the experiment on CCRF-CEM leukemia and with MDA-MB-231 breast was greater than 100 µM each time. For the same compound, the TGI with TK-10 renal, in the experiment on BT-549 breast, in the experiment with HT29 colon and with SK-MEL-28 melanoma was greater than 100 µM in each case.

Turning to `CCOC(=O)C1=C(C)C(C(=O)OC)/C(=C/c2cccc3cccnc23)C1=O` (stereo not given), the TGI in the experiment on SF-295 CNS, in the experiment with PC-3 prostate, in the experiment with OVCAR-3 ovarian, in the experiment with SNB-19 CNS, with CCRF-CEM leukemia and in the experiment with MDA-MB-231 breast was greater than 10 µM in each case. For the same compound, the TGI in the experiment on TK-10 renal, with BT-549 breast, with HT29 colon and with SK-MEL-28 melanoma was greater than 10 µM each time.

As to `CC(C)[C@H]1NC(=O)[C@H]2N=C(O[C@@H]2C)[C@@H]2CCCN2C(=O)[C@H](Cc2ccccc2)NC(=O)[C@@H]2CSC(=N2)[C@@H](Cc2ccccc2)NC(=O)[C@@H]2CSC1=N2`, the TGI in the experiment on SF-295 CNS, in the experiment with PC-3 prostate, in the experiment on OVCAR-3 ovarian, in the experiment on SNB-19 CNS, in the experiment on CCRF-CEM leukemia and with MDA-MB-231 breast was greater than 100 µM throughout. The TGI in the experiment on TK-10 renal, with BT-549 breast, in the experiment with HT29 colon and in the experiment on SK-MEL-28 melanoma was greater than 100 µM throughout.

Consider `COc1ccc2c(c1)nc1n2C(N)=Nc2ccccc2S1`, for which the TGI in the experiment with SF-295 CNS was greater than 100 µM; in the experiment on PC-3 prostate, greater than 100 µM; in the experiment on OVCAR-3 ovarian, 67.8 µM; in the experiment with SNB-19 CNS it was greater than 100 µM; in the experiment with CCRF-CEM leukemia, greater than 23.3 µM; in the experiment on MDA-MB-231 breast, greater than 100 µM. Also, the TGI in the experiment on TK-10 renal, in the experiment with BT-549 breast, in the experiment with HT29 colon and with SK-MEL-28 melanoma was greater than 100 µM throughout.

With `CN(C)CCOC(=O)c1ccc(N)cc1`, the TGI was greater than 100 µM with SF-295 CNS; 35.1 µM in the experiment on PC-3 prostate; greater than 100 µM in the experiment with OVCAR-3 ovarian; greater than 100 µM in the experiment on SNB-19 CNS; 69.8 µM in the experiment with CCRF-CEM leukemia; 41.1 µM in the experiment with MDA-MB-231 breast. Further, the TGI in the experiment on TK-10 renal is greater than 100 µM; in the experiment on BT-549 breast it was greater than 100 µM; with HT29 colon, greater than 100 µM; with SK-MEL-28 melanoma, 67.5 µM.

With `Cc1ccc(NC(=S)Nc2c(C)n(C)n(-c3ccccc3)c2=O)cc1`, the TGI in the experiment with SF-295 CNS, in the experiment on PC-3 prostate, with OVCAR-3 ovarian, in the experiment on SNB-19 CNS, in the experiment with CCRF-CEM leukemia and in the experiment on MDA-MB-231 breast was greater than 100 µM throughout. Moreover, the TGI in the experiment on TK-10 renal, in the experiment with BT-549 breast, with HT29 colon and with SK-MEL-28 melanoma was greater than 100 µM throughout.

Regarding `CC1CC[C@@]2(OC1)O[C@H]1C[C@H]3[C@@H]4CC[C@H]5C[C@@H](OC6OC(CO)C(OC7OC(CO)C(OC8OC(CO)C(O)C(OC9OC(C)C(OC%10OC(C)C(O)C(O)C%10O)C(O)C9O)C8OC8OCC(O)C(O)C8O)C(O)C7O)C(O)C6O)CC[C@]5(C)[C@H]4CC(=O)[C@]3(C)[C@H]1[C@@H]2C` (stereo not given in full), the TGI in the experiment on SF-295 CNS is 39.3 µM; in the experiment with PC-3 prostate it was 30.9 µM; with OVCAR-3 ovarian it was 42.3 µM; in the experiment on SNB-19 CNS it was 39.4 µM; in the experiment with CCRF-CEM leukemia it was 29.2 µM; with MDA-MB-231 breast it was 30.1 µM. In addition, the TGI with TK-10 renal is 31.5 µM; in the experiment on BT-549 breast, 37 µM; in the experiment on HT29 colon, greater than 100 µM; in the experiment with SK-MEL-28 melanoma, 34.3 µM.

Regarding `COc1ccc(/C=C2\CC3C4CC=C5C[C@@H](O)CC[C@]5(C)C4CC[C@]3(C)\C2=N\O)cc1OC` (stereo not given in full), the TGI in the experiment with SF-295 CNS was 80.9 µM; with PC-3 prostate, greater than 100 µM; in the experiment on OVCAR-3 ovarian, 8.74 µM; with SNB-19 CNS it was greater than 100 µM; with CCRF-CEM leukemia it was greater than 100 µM; in the experiment on MDA-MB-231 breast it was greater than 100 µM. The TGI in the experiment with TK-10 renal, in the experiment with BT-549 breast, in the experiment with HT29 colon and with SK-MEL-28 melanoma was greater than 100 µM in each case.

Consider `O=C1OC2(C(F)(F)F)Oc3ccccc3CN2C12CCCCC2` (stereo not given), for which the TGI in the experiment with SF-295 CNS is 86.8 µM; in the experiment on PC-3 prostate, 88 µM; with OVCAR-3 ovarian it was greater than 100 µM; with SNB-19 CNS, greater than 100 µM; in the experiment with CCRF-CEM leukemia it was 62.7 µM; in the experiment with MDA-MB-231 breast, 59.5 µM. Besides, the TGI in the experiment with TK-10 renal, in the experiment with BT-549 breast, with HT29 colon and with SK-MEL-28 melanoma was greater than 100 µM each time.
